Source: article PMC10257182, “Discovery of senolytics using machine learning” (Nature Communications, 2023)
Several values for one entry are separate records, joined by “and”; a condition that tells them apart may be missing. Identical values can stand only once. Like-named read-outs stand apart in the source and are kept apart here.

Columns and labels:
Assay type in all cases: cell-based, human
[1] = tested on: Na+/K+ ATPase pump (intracellular K+) in senescent IMR90 ER:RAS cells; assay: Intracellular K+ determination with Asante staining, OIS; conditions: FIG 4E, ER:RAS cells; for Asante Mean intensity: individual replicate values; for Mean (Asante Mean intensity, Tukey test details): mean of n=7
Protocol: Cells were cultured for control and senescent phenotype and then treated with the senolytics oleandrin, ouabain and periplocin at 10 nM for 72 h. Asante (Asante Potassium Green-2 AM, abcam ab142806) was added to the culture 30 min before fixation, following manufacturer instructions. DAPI staining was done before image acquisition on Nikon TI2 microscope (20x). Image analysis was performed using ImageJ 1.53k for setting intensity threshold and measuring mean intensity.

[2] = tested on: control IMR90 ER:STOP cells; assay: Cell survival assay using crystal violet staining, OIS, control cells; set-up: % Cell Survival: concentration or dose not given beside the values; conditions: for % Cell Survival / Mean (cell survival, Tukey test details): FIG 4B, ER:STOP cells; for % Cell Survival: individual replicate values, ER:STOP DMSO = 100; for Mean (cell survival, Tukey test details): mean of n=12 as fraction of STOP DMSO = 1
Protocol: Equal numbers of control and senescent cells were plated at high density on multiwell plates just before senolytic treatment addition. After treatment, cells were fixed on 0.5% glutaraldehyde (Sigma) and then dried at RT overnight. Then, wells were stained with crystal violet solution for 3 h, washed and dried. Once they were completely dry, the plates were scanned for records. Quantification was performed extracting the staining with 1% acetic acid and measuring the final solution by absorbance at 595 nm.

[3] = tested on: non-senescent control IMR90 ER:RAS cells; assay: Nuclei count (Hoechst, high content imaging) senolytic assay, OIS model, non-senescent control cells; conditions: for IC50: OIS model, non-senescent IMR90 ER:RAS, nuclei count, 72 h; for % Cell Survival: control
Outline: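 IMR90 ER:RAS (p14), ±4-OHT 100 nM; cpd 10 nM–10 μM, 10-pt […], 72 h, n=3. Fix formaldehyde, Triton X-100, Hoechst 2 μg/ml final. Readout: imaged nuclei count vs untreated; ouabain positive control.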

[4] = tested on: proliferating IMR90 cells; assay: BrdU incorporation proliferation assay; conditions: for % BrdU positive cells, mean (Test details, Mean 2) / % BrdU positive cells: IMR90 cells; for % BrdU positive cells, mean (Test details, Mean 2): n 4; for % BrdU positive cells: single replicates (SUP FIG 9G); for proliferation by BrdU incorporation, in words: proliferating IMR90 cells, 10 nM
Protocol: 5-bromo-2′-deoxyuridine (BrdU) incorporation was used to measure the number of cells actively replicating DNA. Cells were incubated with 10 μM BrdU (85811, Sigma) for 18 h. After that, cells were fixed with 4% Paraformaldehyde, permeabilised, blocked and then stained for immunofluorescence using BrdU primary antibody (555627 BD Pharmigen), Alexa fluor secondary for detection, and DAPI staining for cell counting. Acquisition was done with a Nikon TI2 microscope and analysis was performed with ImageJ for cell counting.

Question: What does the source list for `C[C@@H]1O[C@@H](O[C@H]2C[C@@H](O)[C@]3(CO)[C@H]4[C@H](O)C[C@]5(C)[C@@H](C6=CC(=O)OC6)CC[C@]5(O)[C@@H]4CC[C@]3(O)C2)[C@H](O)[C@H](O)[C@H]1O` [Ouabain, ouabain, reference compound]?
Answer: Asante Mean intensity [1]: 73.6 and 91 and 73.5 and 72.9 and 82 and 66.9; Mean (Asante Mean intensity, Tukey test details) [1]: 76.21; cytotoxic activity (crystal violet), in words [2]: no cytotoxic activity; % Cell Survival [2]: 100.7% and 91.1% and 79.5% and 88.8% and 108.2% and 92.7% and 95.3% and 93.9% and 97.9% and 80.1% and 99.8% and 95%; Mean (cell survival, Tukey test details) [2]: 0.9358; viability at 10 µM ([3]; Homo sapiens, IMR-90, 72 h, Control, log (dose) [M] -5, 72 h, mean n=3 (Fig 3C), read-out: Mean % Cell Survival): 15.9%; viability at 4.677 µM ([3]; Homo sapiens, IMR-90, 72 h, Control, log (dose) [M] -5.33, 72 h, mean n=3 (Fig 3C), read-out: Mean % Cell Survival): 22.3%; viability at 2.188 µM ([3]; Homo sapiens, IMR-90, 72 h, Control, log (dose) [M] -5.66, 72 h, mean n=3 (Fig 3C), read-out: Mean % Cell Survival): 23.9%; viability at 1 µM ([3]; Homo sapiens, IMR-90, 72 h, Control, log (dose) [M] -6, 72 h, mean n=3 (Fig 3C), read-out: Mean % Cell Survival): 27%; viability at 0.4677 µM ([3]; Homo sapiens, IMR-90, 72 h, Control, log (dose) [M] -6.33, 72 h, mean n=3 (Fig 3C), read-out: Mean % Cell Survival): 29.6%; viability at 0.2188 µM ([3]; Homo sapiens, IMR-90, 72 h, Control, log (dose) [M] -6.66, 72 h, mean n=3 (Fig 3C), read-out: Mean % Cell Survival): 46.7%; viability at 0.1 µM ([3]; Homo sapiens, IMR-90, 72 h, Control, log (dose) [M] -7, 72 h, mean n=3 (Fig 3C), read-out: Mean % Cell Survival): 60.8%; viability at 0.04677 µM ([3]; Homo sapiens, IMR-90, 72 h, Control, log (dose) [M] -7.33, 72 h, mean n=3 (Fig 3C), read-out: Mean % Cell Survival): 78.1%; viability at 0.02188 µM ([3]; Homo sapiens, IMR-90, 72 h, Control, log (dose) [M] -7.66, 72 h, mean n=3 (Fig 3C), read-out: Mean % Cell Survival): 87.3%; viability at 0.01 µM ([3]; Homo sapiens, IMR-90, 72 h, Control, log (dose) [M] -8, 72 h, mean n=3 (Fig 3C), read-out: Mean % Cell Survival): 88.3%; viability at 0.0464 µM ([3]; Homo sapiens, IMR-90, Control, 46.4 nM, normalised to DMSO, individual experiments (Fig 3B), read-out: % Cell Survival): 78.1%; viability at 10 µM ([3]; Homo sapiens, IMR-90, control cells, log (dose) [M] -5, read-out: % Cell Survival): 10.9%; viability at 4.677 µM ([3]; Homo sapiens, IMR-90, control cells, log (dose) [M] -5.33, read-out: % Cell Survival): 23.1%; viability at 2.188 µM ([3]; Homo sapiens, IMR-90, control cells, log (dose) [M] -5.66, read-out: % Cell Survival): 27%; viability at 1 µM ([3]; Homo sapiens, IMR-90, control cells, log (dose) [M] -6, read-out: % Cell Survival): 27.3%; viability at 0.4677 µM ([3]; Homo sapiens, IMR-90, control cells, log (dose) [M] -6.33, read-out: % Cell Survival): 29.4%; viability at 0.2188 µM ([3]; Homo sapiens, IMR-90, control cells, log (dose) [M] -6.66, read-out: % Cell Survival): 46%; viability at 0.1 µM ([3]; Homo sapiens, IMR-90, control cells, log (dose) [M] -7, read-out: % Cell Survival): 62.2%; viability at 0.04677 µM ([3]; Homo sapiens, IMR-90, control cells, log (dose) [M] -7.33, read-out: % Cell Survival): 81.7%; viability at 0.02188 µM ([3]; Homo sapiens, IMR-90, control cells, log (dose) [M] -7.66, read-out: % Cell Survival): 81.6%; viability at 0.01 µM ([3]; Homo sapiens, IMR-90, control cells, log (dose) [M] -8, read-out: % Cell Survival): 86%; IC50 ([3]; Homo sapiens, IMR-90): 231 nM; % BrdU positive cells, mean (Test details, Mean 2) [4]: 73.84%; % BrdU positive cells [4]: 69.37% and 73.68% and 73.67% and 78.62%; proliferation by BrdU incorporation, in words [4]: none of the cardiac glycosides induced unwanted changes in proliferation

Question: What does the source list for `CO[C@H]1C[C@H](O[C@H]2CC[C@]3(C)[C@H]4CC[C@]5(C)[C@@H](C6=CC(=O)OC6)CC[C@]5(O)[C@@H]4CC[C@]3(O)C2)O[C@H](C)[C@H]1O[C@@H]1O[C@H](CO)[C@@H](O)[C@H](O)[C@H]1O` [Periplocin, periplocin]?
Answer: Asante Mean intensity [1]: 75.6 and 74 and 75.4 and 73.1 and 78 and 73 and 65.7; Mean (Asante Mean intensity, Tukey test details) [1]: 73.54; % Cell Survival [2]: 103.3% and 93.7% and 87.3% and 112.7% and 104.8% and 100.7% and 97.3% and 88.4% and 100.5% and 85.6% and 102.9% and 98.7%; Mean (cell survival, Tukey test details) [2]: 0.9799; cytotoxic activity (crystal violet), in words ([2]; IMR90-ER:STOP proliferating control cells, 10 nM, 72 h): no cytotoxic activity; Mean % Cell Survival ([3]; Control, log (dose) [M] -5, 72 h, mean n=3 (Fig 3C)): 18.4295%; Mean % Cell Survival ([3]; Control, log (dose) [M] -5.33, 72 h, mean n=3 (Fig 3C)): 19.4604%; Mean % Cell Survival ([3]; Control, log (dose) [M] -5.66, 72 h, mean n=3 (Fig 3C)): 23.5452%; Mean % Cell Survival ([3]; Control, log (dose) [M] -6, 72 h, mean n=3 (Fig 3C)): 29.0681%; Mean % Cell Survival ([3]; Control, log (dose) [M] -6.33, 72 h, mean n=3 (Fig 3C)): 43.2104%; Mean % Cell Survival ([3]; Control, log (dose) [M] -6.66, 72 h, mean n=3 (Fig 3C)): 52.7161%; Mean % Cell Survival ([3]; Control, log (dose) [M] -7, 72 h, mean n=3 (Fig 3C)): 63.4586%; Mean % Cell Survival ([3]; Control, log (dose) [M] -7.33, 72 h, mean n=3 (Fig 3C)): 71.1117%; Mean % Cell Survival ([3]; Control, log (dose) [M] -7.66, 72 h, mean n=3 (Fig 3C)): 89.3621%; Mean % Cell Survival ([3]; Control, log (dose) [M] -8, 72 h, mean n=3 (Fig 3C)): 91.9585%; IC50 [3]: 300 nM; % Cell Survival ([3]; log (dose) [M] -5, individual replicates (Fig 3D)): 15.9071% and 11.1013% and 28.2801%; % Cell Survival ([3]; log (dose) [M] -5.33, individual replicates (Fig 3D)): 20.9802% and 15.9471% and 21.4539%; % Cell Survival ([3]; log (dose) [M] -5.66, individual replicates (Fig 3D)): 25.1075% and 20.6167% and 24.9113%; % Cell Survival ([3]; log (dose) [M] -6, individual replicates (Fig 3D)): 32.8461% and 26.2555% and 28.1028%; % Cell Survival ([3]; log (dose) [M] -6.33, individual replicates (Fig 3D)): 39.8108% and 40.3524% and 49.4681%; % Cell Survival ([3]; log (dose) [M] -6.66, individual replicates (Fig 3D)): 51.9347% and 55.859% and 50.3546%; % Cell Survival ([3]; log (dose) [M] -7, individual replicates (Fig 3D)): 57.6956% and 62.3789% and 70.3014%; % Cell Survival ([3]; log (dose) [M] -7.33, individual replicates (Fig 3D)): 64.4884% and 71.5419% and 77.305%; % Cell Survival ([3]; log (dose) [M] -7.66, individual replicates (Fig 3D)): 94.8409% and 82.7313% and 90.5142%; % Cell Survival ([3]; log (dose) [M] -8, individual replicates (Fig 3D)): 93.6371% and 90.7489% and 91.4894%; % BrdU positive cells, mean (Test details, Mean 2) [4]: 68.52%; % BrdU positive cells [4]: 63.29% and 64.13% and 67.53% and 79.11%; proliferation by BrdU incorporation, in words [4]: none of the cardiac glycosides induced unwanted changes in proliferation
